Results taken from the CATMoS acute toxicity set (Mansouri et al. 2021).

Test: GHS categories as the set defines them, by LD50: 1 up to 5, 2 up to 50, 3 up to 300, 4 up to 2000, 5 above 2000 mg/kg
Settings: rat; in vivo; po

`CCC(=O)/C=C/C=C(\C)CCC=C(C)C` and `C=CC(C)(CCC=C(C)C)OC` (stereo not drawn) are the same in GHS category: 5 for the first, 5 for the second.

`CN1C(=O)c2ccc3c4ccc5c6c(ccc(c7ccc(c2c37)C1=O)c64)C(=O)N(C)C5=O` and `CCc1cccc(C)c1Nc1ccc(Nc2c(C)cccc2CC)c2c1C(=O)c1ccccc1C2=O` are the same in GHS category: 5 for the first, 5 for the second.

`CCOC(=O)c1c(CSc2ccccc2)n(C)c2cc(Br)c(O)c(CN(C)C)c12` and `CCCCOC(=O)C1(O)c2ccccc2-c2ccccc21` are the same in GHS category: 5 for the first, 5 for the second.

`C[C@@H]1[C@H](O)[C@@H](C)C=CC=CC=CC=CC=CC=CC=C[C@H](O[C@@H]2O[C@H](C)[C@@H](O)[C@H](N)[C@@H]2O)C[C@@H]2O[C@](O)(C[C@@H](O)C[C@@H](O)[C@H](O)CC[C@@H](O)C[C@@H](O)CC(=O)O[C@H]1C)C[C@H](O)[C@H]2C(=O)O` and `CN[C@@H]1[C@H](O)[C@H](NC)[C@H]2O[C@@]3(O)C(=O)C[C@@H](C)O[C@H]3O[C@@H]2[C@H]1O` are the same in GHS category: 5 for the first, 5 for the second.

`Cc1ccccc1OC(=O)c1cc(Cl)ccc1OC(N)=O` and `NC(=O)Oc1ccccc1C(=O)Oc1cc(Cl)ccc1Cl` are the same in GHS category: 5 for the first, 5 for the second.

Going from `CCOc1ccccc1C(=N)N` to `NC(=O)Oc1ccccc1C(=O)Oc1ccc([N+](=O)[O-])cc1`, the GHS category rises from 4 to 5.

`O=C(Nc1cc(Cl)c(NC(=O)c2cc3ccccc3c(N=Nc3cc(C(F)(F)F)ccc3Cl)c2O)cc1Cl)c1cc2ccccc2c(N=Nc2cc(C(F)(F)F)ccc2Cl)c1O` and `O=C(Nc1ccccc1C(=O)O)C(=Cc1ccccc1)C(=O)Nc1ccccc1C(=O)O` are the same in GHS category: 5 for the first, 5 for the second.

`CC1(C)Oc2cc(C(=O)c3ccccc3)ccc2NC1=O` and `CC1(C)S[C@@H]2[C@H](NC(=O)C(c3ccccc3)S(=O)(=O)O)C(=O)N2[C@H]1C(=O)O` (stereo partly drawn) are the same in GHS category: 5 for the first, 5 for the second.

First: CCC(C)n1ncn(-c2ccc(N3CCN(c4ccc(OC[C@H]5CO[C@](Cn6cncn6)(c6ccc(Cl)cc6Cl)O5)cc4)CC3)cc2)c1=O (stereo partly drawn)
Second: CCOC(=O)c1nn(-c2ccc(OC)cc2)c2c1CCN(c1ccc(N3CCCCC3=O)cc1)C2=O
The GHS category of the first is lower: 4 for the first, 5 for the second.

`CSC(=O)c1cccc2nnsc12` and `CCCCOC(=O)C(=O)Nc1cccc(-c2nnn[nH]2)c1` are the same in GHS category: 5 for the first, 5 for the second.

`CCCCCCCCCC=CC=O` and `CCCCCCCC/C=C\CCCCCCCCCCCCC` are the same in GHS category: 5 for the first, 5 for the second.

Compared with `Nc1ccn([C@@H]2O[C@H](CO)[C@@H](O)[C@@H]2O)c(=O)n1`, `OC[C@H]1O[C@@H](n2cnc3c(NC[C@H](O)COc4cccc5ccccc45)ncnc32)[C@H](O)[C@@H]1O` is lower in GHS category: 5 for the first, 4 for the second.

`CC(=O)[C@@]1(O)CC[C@H]2[C@@H]3C=C(Cl)C4=CC(=O)CC[C@]4(C)[C@H]3CC[C@@]21C` and `CCC(C)(Oc1ccc(Cl)cc1)C(=O)OC1CC(C)CC(C)(C)C1` (stereo not drawn) are the same in GHS category: 5 for the first, 5 for the second.

First: C[C@H]1CO[C@@](Cn2ccnc2)(c2cc3cc(Cl)cc(Cl)c3o2)O1
Second: COc1cc2c(s1)C(O)=C(C(=O)Nc1ccccn1)N(C)S2(=O)=O
The GHS category of the first is higher: 4 for the first, 3 for the second.

`O=C(C=Cc1ccccc1)NCCO` and `CC(C)(C)C1CCC(CC2=C(O)C(=O)c3ccccc3C2=O)CC1` (stereo not drawn) are the same in GHS category: 5 for the first, 5 for the second.

`CCCCCC(=O)OCCCC` and `CCCCCCCCCCCC(=O)N(C)CC(=O)O` are the same in GHS category: 5 for the first, 5 for the second.

First: CCCOc1ccc(-c2ccc(C#N)cc2)cc1
Second: CCCCN1CCCC1=O
The GHS category of the first is higher: 5 for the first, 4 for the second.

`CCOC(=O)C(F)(F)F` and `Cn1cc(C(=O)O)c(C(F)F)n1` are the same in GHS category: 5 for the first, 5 for the second.

Going from `C=CCCCCCCCC(=O)N(C)C` to `CCCCCCCCCCCCCCCC(=O)OCCCCCCCCCCCCCCCC(C)C`, the GHS category rises from 4 to 5.

`CN1CCN(c2c(F)cc3c(=O)c(C(=O)O)cn(CCF)c3c2F)CC1` and `O=C1OCC[C@@H]1O` are the same in GHS category: 5 for the first, 5 for the second.

First: CCO[Si](CC(C)C)(OCC)OCC
Second: C=C[Si](C)(C)Cl
The GHS category of the first is higher: 5 for the first, 3 for the second.

With `C=CC1CCC(C2CCC(CCC)CC2)CC1` (stereo not drawn) the GHS category was 5.
